Experiments:
[1] = tested on: lysosomal peptidase / purified lysosomal enzymes; assay: hydrolysis under conditions of lysosomal digestion (release of free drug); type: in vitro ADME; conditions: for daunorubicine regenerated by the action of lysosomal peptidase: pH 6.0, aminoacid linked to daunorubicine
Text: According to the invention, the arm is of peptidic nature and contains preferably 3 or 4 aminoacids. It is particularly important that the aminoacid being bound to the free amino function of the drug through its carboxylic function, has an asymmetric carbon atom and has the L-configuration because the peptidases or the lysosomal hydrolases only cut the peptidic bonds in the alpha position with respect to an asymmetric carbon. The aminoacid composing the peptidic spacer arm could be selected among the following L-aminoacids: α-aminobutyric acid, γ-aminobutyric acid, ε-aminocaproic acid, arginine, asparagine, aspartic acid, cysteic acid, cysteine, glutamine, glutamic acid, glycine, histidine, 4-hydroxyproline, […]. Of particular interest to play this function is L-leucine. […] In addition, a much higher rate of release of the free drug is obtained when the number of aminoacids making up the peptidic arm increases and may be as high as 78% when the intermediate peptide is made of a sequence of 4 aminoacids. Thus according to the invention, the intermediate "spacer arm" preferably is represented by the sequence

[2] = stability in the serum; type: in vitro ADME
Text: According to the invention, the arm is of peptidic nature and contains preferably 3 or 4 aminoacids. It is particularly important that the aminoacid being bound to the free amino function of the drug through its carboxylic function, has an asymmetric carbon atom and has the L-configuration because the peptidases or the lysosomal hydrolases only cut the peptidic bonds in the alpha position with respect to an asymmetric carbon. The aminoacid composing the peptidic spacer arm could be selected among the following L-aminoacids: α-aminobutyric acid, γ-aminobutyric acid, ε-aminocaproic acid, arginine, asparagine, aspartic acid, cysteic acid, cysteine, glutamine, glutamic acid, glycine, histidine, 4-hydroxyproline, […]. Of particular interest to play this function is L-leucine.

[3] = tested on: L 1210 leukemia; assay: mice inoculated intraperitoneally with L 1210 leukemia, treated by intraperitoneal route; type: in vivo; conditions: for activity against L 1210 leukemia in mice compared with daunorubicine or L-leucyl-daunorubicine: i.p. inoculation, i.p. treatment; for activity against L 1210 leukemia in mice compared with daunorubicine or L-leucyl-daunorubicine / toxicity compared with daunorubicine or L-leucyl-daunorubicine: equal doses expressed as daunorubicine; for toxicity compared with daunorubicine or L-leucyl-daunorubicine: mice, i.p.
[4] = tested on: L 1210 leukemia cells; assay: in vitro growth inhibition of L 1210 leukemia cells; type: cell-based; conditions: 72 hours of culture; concentration near 10 μg/cm^3
Method: Thus the products in which the drug is daunorubicine inhibit in vitro the growth of cancerous cells such as cells of L 1210 leukemia in an appropriate medium. For example, after 72 hours of culture, BSA-succinyl-L-Ala-L-Leu-L-Ala-L-Leu-Daunorubicine at a concentration near 10 μg/cm^3, causes 90% of inhibition of the growth of L 1210 leukemia cells.

[5] = 5 mg/kg expressed as daunorubicine, mice with L 1210 leukemia

CC[C@H](C)[C@H](N)C(=O)O [L-isoleucine]
daunorubicine regenerated by the action of lysosomal peptidase [1]: 60%

N[C@@H](Cc1ccc(O)cc1)C(=O)O [L-tyrosine]
daunorubicine regenerated by the action of lysosomal peptidase [1]: 70%

COc1cccc2c1C(=O)c1c(O)c3c(c(O)c1C2=O)C[C@@](O)(C(C)=O)C[C@@H]3O[C@H]1C[C@H](NC(=O)[C@@H](N)CC(C)C)[C@H](O)[C@H](C)O1 [N-L-leucyl-daunorubicine]
stability in the serum [2]: stable in the serum
regeneration of the free drug when submitted to lysosomal digestion [1]: regenerate rapidly the free drug
free daunorubicine released ([1]; two hours hydrolysis at pH 4.5, lysosomal digestion): 65%
free daunorubicine released ([1]; two hours hydrolysis at pH 6.0, lysosomal digestion): 90%

COc1cccc2c1C(=O)c1c(O)c3c(c(O)c1C2=O)C[C@@](O)(C(=O)CO)C[C@@H]3O[C@H]1C[C@H](NC(=O)[C@@H](N)CC(C)C)[C@H](O)[C@H](C)O1 [N-L-leucyl-doxorubicine]
stability in the serum [2]: stable in the serum
regeneration of the free drug when submitted to lysosomal digestion [1]: regenerate rapidly the free drug

COc1cc(NC(C)CCCNC(=O)[C@@H](N)CC(C)C)c2ncccc2c1 (stereo partly drawn) [N-L-leucyl-primaquine]
stability in the serum [2]: stable in the serum
regeneration of the free drug when submitted to lysosomal digestion [1]: regenerate rapidly the free drug

COc1cccc2c1C(=O)c1c(O)c3c(c(O)c1C2=O)C[C@@](O)(C(C)=O)C[C@@H]3O[C@H]1C[C@H](N)[C@H](O)[C@H](C)O1 [daunorubicine, reference compound]
increase of life span (ILS) [3, 5]: about 7%
toxicity at the dose ([3]; 5 mg/kg, mice with L 1210 leukemia): already toxic at that dose

BSA-succinyl-L-Ala-L-Leu-L-Ala-L-Leu-Daunorubicine: succinyl-alanyl-leucyl-alanyl-leucyl-daunorubicine coupled with bovine serum albumin
activity against L 1210 leukemia in mice compared with daunorubicine or L-leucyl-daunorubicine [3]: markedly better activity than that of daunorubicine or L-leucyl-daunorubicine
toxicity compared with daunorubicine or L-leucyl-daunorubicine [3]: less toxicity
inhibition of the growth of L 1210 leukemia cells [4]: 90%

fetuine-succinyl-L-Ala-L-Leu-L-Ala-L-Leu-daunorubicine: succinylated fetuine coupled with L-alanyl-L-leucyl-L-alanyl-L-leucyl-daunorubicine
increase of life span (ILS) [3, 5]: ~194%
surviving mice after 30 days of observation ([3]; 5 mg/kg expressed as daunorubicine, of 10 mice): 8
activity against L 1210 leukemia in mice compared with daunorubicine or L-leucyl-daunorubicine [3]: markedly better activity than that of daunorubicine or L-leucyl-daunorubicine
toxicity compared with daunorubicine or L-leucyl-daunorubicine [3]: less toxicity
